From US8076073B2, “Cholesterol and hedgehog signaling” (The Johns Hopkins University School of Medicine, priority 1998, dated 2011)
Entries after “also recorded” stand apart in the source; their conditions may differ.

Key:
pregnant rats = settings: treatment of pregnant rats; cited from earlier work
[1] = test system: 7-dehydrocholesterol reductase; settings: cited from earlier work
[2] = test system: enzymes of cholesterol biosynthesis; settings: cited from earlier work
mice = mice with hypomorphic apoB mutation (truncated apoB, reduced cholesterol levels); cited from earlier work
Hh protein = target: T1, Hh protein (Drosophila melanogaster, UniProt Q02936); settings: relatively low concentrations; nucleophile in the second step; cited from earlier work
T1 construct: made in house
T1 sequence (Q02936 1-471): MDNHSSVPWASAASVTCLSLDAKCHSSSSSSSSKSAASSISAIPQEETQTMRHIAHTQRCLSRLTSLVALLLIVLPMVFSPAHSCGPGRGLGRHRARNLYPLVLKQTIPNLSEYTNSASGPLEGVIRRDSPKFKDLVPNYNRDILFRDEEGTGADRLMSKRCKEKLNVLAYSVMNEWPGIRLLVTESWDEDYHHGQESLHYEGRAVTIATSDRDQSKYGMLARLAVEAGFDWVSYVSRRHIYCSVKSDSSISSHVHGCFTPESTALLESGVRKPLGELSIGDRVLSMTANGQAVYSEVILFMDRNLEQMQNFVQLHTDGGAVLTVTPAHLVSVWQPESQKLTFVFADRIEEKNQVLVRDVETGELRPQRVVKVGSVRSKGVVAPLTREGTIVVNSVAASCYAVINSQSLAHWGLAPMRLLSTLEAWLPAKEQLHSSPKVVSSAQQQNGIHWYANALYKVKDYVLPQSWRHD

[3] = test system: pregnant ewes / newborn lambs; settings: grazing by pregnant ewes; cited from earlier work
COS7 cells = assay: Jervine inhibition of cholesterol biosynthesis, [3H]-mevalonic acid labelling and HPLC sterol analysis; format: cell-based; parameters: radiolabelled cholesterol levels / another radiolabelled sterol, tentatively identified as zymosterol: dose or concentration left out as unconfirmed
Description: Given the structural similarities of these compounds to cholesterol and the similar teratogenic effects of cholesterol synthesis inhibitors upon the offspring of pregnant rats, a reasonable mechanism to consider for the effects of these plant sterol derivatives was the inhibition of cholesterol biosynthesis. Accordingly, we tested COS7 cultured cells treated with jervine for defects in cholesterol biosynthesis by labelling with [3H]-mevalonic acid and then extracting and analyzing radiolabelled, non-saponifiable lipids. […] Given the similarities in their teratogenic effects, this inhibition seems likely to underlie the teratogenic effects of both the synthetic and natural compounds.
Given the structural similarities of these compounds to cholesterol and the similar teratogenic effects of cholesterol synthesis inhibitors upon the offspring of pregnant rats, a reasonable mechanism to consider for the effects of these plant sterol derivatives was the inhibition of cholesterol biosynthesis. Accordingly, COS7 cultured cells treated with jervine were tested for defects in cholesterol biosynthesis by labelling with [3H]-mevalonic acid and then extracting and analyzing radiolabelled, non-saponifiable lipids. Metabolic labeling and sterol analysis was essentially as described (Popjak et al. J. Biol. Chem. 264: 630-6238.1989; Rilling et al. 1993 Arch. Biochem. Biophys. 301: 210-215.), with minor modifications. Briefly, COS-7 cells were plated at ˜35% confluence into two 60 mm dishes at 37° C. in 4 ml each of Dulbecco's modified Eagle's medium (DMEM) supplemented with 10% fetal bovine serum (FBS). After 24 hr of growth the medium in each dish was replaced with 2 ml fresh medium with 10% FBS; [^3H]-mevalonic acid (NEN #NET 176) brought to a specific activity of 0.8 Ci/mmol in a 1% solution of bovine serum albumin was added to this medium to a final concentration of […]. At this time, one dish received […] of a 4 mg/ml solution of jervine in ethanol (final concentration […] jervine), and the other received […] of ethanol. […]

[4] = COS7 cells labelled with [3H]-mevalonic acid, 24 hr, jervine (b16 and b71 print 28=|M), versus ethanol control

Which results are given for `Cl.Cl.Clc1ccccc1CNCC1CCC(CNCc2ccccc2Cl)CC1` (stereo not drawn) [AY 9944R]?
induction of HPE-like malformations (pregnant rats): HPE-like malformations can be induced; inhibition of 7-dehydrocholesterol reductase [1]: inhibited; sterol precursor abnormally accumulated [2]: 7-dehydrocholesterol

Which “induction of HPE-like malformations” value (pregnant rats) does the source give for `O=C(O)c1ccc(CCN2CCN(C/C=C/c3ccc(Cl)cc3)CC2)cc1` [BM 15.766] here?
Its value is “HPE-like malformations can be induced”.

What about the “inhibition of 7-dehydrocholesterol reductase” value [1] of the same compound?
Its value is “inhibited”.

And the “sterol precursor abnormally accumulated” value [2]?
The value was 7-dehydrocholesterol.

And the “teratogenesis, resulting defects” value (mice)?
Its value is “severe holoprosencephaly”.

Which “effect on in vitro autoprocessing reaction” value (Hh protein) does the source give for `CC(C)CCC[C@@H](C)[C@H]1CC[C@H]2[C@@H]3CC=C4C[C@@H](O)CC[C@]4(C)[C@H]3CC[C@]12C` [Cholesterol, cholesterol] here?
Its value is “stimulates”.

What does the source list for `CCN(CC)CCOc1ccc(C(O)(Cc2ccc(Cl)cc2)c2ccc(C)cc2)cc1` (stereo not drawn) [Triparanol]?
induction of HPE-like malformations (pregnant rats): HPE-like malformations can be induced; sterol precursor abnormally accumulated [2]: desmosterol

For `CC1=C2C[C@H]3[C@@H](CC=C4C[C@@H](O)CC[C@@]43C)[C@@H]2CC[C@]12O[C@@H]1C[C@H](C)CN[C@H]1[C@H]2C` [cyclopamine], which “congenital craniofacial malformations in newborn lambs” value [3] is on record?
The value was “responsible”.

Which results are given for `CC1=C2C(=O)[C@H]3[C@@H](CC=C4C[C@@H](O)CC[C@@]43C)[C@@H]2CC[C@]12O[C@@H]1C[C@H](C)CN[C@H]1[C@H]2C` [jervine]?
congenital craniofacial malformations in newborn lambs [3]: responsible; another radiolabelled sterol, tentatively identified as zymosterol (COS7 cells; [4]): found to accumulate; also recorded: increased levels; radiolabelled cholesterol levels (COS7 cells; [4]): reduced levels; inhibition of cholesterol biosynthesis in cultured cells (COS7 cells; COS7 cells, jervine at these concentrations): inhibits cholesterol biosynthesis
